As to `COc1ccccc1C(=O)CCC(=O)N1CCC(N2Cc3ccccc3NC2=O)CC1` [compound 66, 3-{1-[1,4-dioxo-4-(2-methoxyphenyl)butyl]-4-piperidinyl}-3,4-dihydro-2(1H)-quinazolinone], the melting point is 174 to 175 °C.
In the case of `CC(=O)Nc1ccc(C(=O)CCC(=O)N2CCC(n3cc(-c4ccccc4)[nH]c3=O)CC2)cc1Br` [compound 21, 1-{1-[4-(4-acetylamino-3-bromophenyl)-1,4-dioxobutyl]-4-piperidinyl}-1,3-dihydro-4-phenyl-2(2H)-imidazolone] it was 243 °C; in that of `Nc1c(Br)cc(C(=O)CCC(=O)N2CCC(N3Cc4cnccc4NC3=O)CC2)cc1Br` [compound 43, 3-{1-[4-(4-amino-3,5-dibromophenyl)-1,4-dioxobutyl]-4-piperidinyl}-3,4-dihydro-2(1H)-pyrido[4,3-d]pyrimidinone], above 250 °C; in that of `O=C(CCC(=O)N1CCC(N2Cc3ccccc3NC2=O)CC1)c1ccc(-c2ccccc2)cc1` [compound 62, 3-{1-[4-(4-biphenylyl)-1,4-dioxobutyl]-4-piperidinyl}-3,4-dihydro-2(1H)-quinazolinone], 200 °C.
Molecule `COc1cc2c(cc1OC)NC(=O)N(C1CCN(C(=O)CCC(=O)c3cc(Br)c(N)c(Br)c3)CC1)C2` [compound 29, 3-{1-[4-(4-amino-3,5-dibromophenyl)-1,4-dioxobutyl]-4-piperidinyl}-3,4-dihydro-6,7-dimethoxy-2(1H)-quinazolinone] gave a melting point of 256 to 258 °C.
The figure for `Nc1c(Br)cc(C(=O)CCC(=O)N2CCC(N3Cc4cccnc4NC3=O)CC2)cc1Br` [compound 13, 3-{1-[4-(4-amino-3,5-dibromophenyl)-1,4-dioxobutyl]-4-piperidinyl}-3,4-dihydro-2(1H)-pyrido[2,3-d]pyrimidinone] is above 225 °C; for `O=C(CCC(=O)N1CCC(N2Cc3ccccc3NC2=O)CC1)c1ccc(Cl)cc1` [compound 26, 3,4-dihydro-3-{1-[4-(4-chlorophenyl)-1,4-dioxobutyl]-4-piperidinyl}-2(1H)-quinazolinone] it is 237 to 238 °C; for `CC(=O)Nc1ccc(C(=O)CCC(=O)N2CCC(N3Cc4ccccc4NC3=O)CC2)cc1Br` [compound 18, 3-{1-[4-(4-acetylamino-3-bromophenyl)-1,4-dioxobutyl]-4-piperidinyl}-3,4-dihydro-2(1H)-quinazolinone] it is 243 °C.
Consider `O=C(CCC(=O)N1CCC(N2Cc3ccccc3NC2=O)CC1)c1ccc(F)cc1` [compound 67, 3-{1-[1,4-dioxo-4-(4-fluorophenyl)butyl]-4-piperidinyl}-3,4-dihydro-2(1H)-quinazolinone], for which the melting point lay in the range of 164 to 166 °C.
In turn, `Nc1c(Br)cc(C(=O)CCC(=O)N2CCN(c3nc4ccccc4[nH]c3=O)CC2)cc1Br` [compound 61, 3-{1-[4-(4-amino-3,5-dibromophenyl)-1,4-dioxobutyl]-4-piperazinyl}-2(1H)-quinoxalinone] showed a melting point of 246 to 252 °C.
In turn, `CC(=O)Nc1ccc(C(=O)CCC(=O)N2CCC(n3c(=O)[nH]c4ccccc43)CC2)cc1Br` [compound 19, 1-{1-[4-(4-acetylamino-3-bromophenyl)-1,4-dioxobutyl]-4-piperidinyl}-1,3-dihydro-2(2H)-benzimidazolone] returned a melting point of 128 °C.
The figure for `CNc1ccc(C(=O)CCC(=O)N2CCC(N3Cc4ccccc4NC3=O)CC2)cc1[N+](=O)[O-]` [compound 27, 3,4-dihydro-3-{1-[1,4-dioxo-4-(4-methylamino-3-nitrophenyl)butyl]-4-piperidinyl}-2(1H)-quinazolinone] is 258 to 259 °C (dec.); for `O=C(CCC(=O)N1CCC(N2Cc3ccccc3NC2=O)CC1)c1cc(Br)cc(Br)c1` [compound 65, 3-{1-[4-(3,5-dibromophenyl)-1,4-dioxobutyl]-4-piperidinyl}-3,4-dihydro-2(1H)-quinazolinone] it is 212 to 214 °C.
In the case of `Nc1c(Br)cc(C(=O)CCC(=O)N2CCC(N3Cc4ccncc4NC3=O)CC2)cc1Br` [compound 42, 3-{1-[4-(4-amino-3,5-dibromophenyl)-1,4-dioxobutyl]-4-piperidinyl}-3,4-dihydro-2(1H)-pyrido[3,4-d]pyrimidinone] it was above 250 °C; in that of `N#Cc1ccc(C(=O)CCC(=O)N2CCC(N3Cc4ccccc4NC3=O)CC2)cc1` [compound 72, 3-{1-[4-(4-cyanophenyl)-1,4-dioxobutyl]-4-piperidinyl}-3,4-dihydro-2(1H)-quinazolinone], 191 to 193 °C; in that of `O=C(CCC(=O)N1CCC(N2Cc3ccccc3NC2=O)CC1)c1ccc(Cl)c([N+](=O)[O-])c1` [compound 28, 3,4-dihydro-3-{1-[4-(4-chloro-3-nitrophenyl)-1,4-dioxo-butyl]-4-piperidinyl}-2(1H)-quinazolinone], 207 to 209 °C.
In the case of `Nc1ccc(C(=O)CCC(=O)N2CCC(n3cc(-c4ccccc4)[nH]c3=O)CC2)cc1Br` [compound 24, 1-{1-[4-(4-amino-3-bromophenyl)-1,4-dioxobutyl]-4-piperidinyl}-1,3-dihydro-4-phenyl-2(2H)-imidazolone] it was 267 °C; in that of `Nc1c(Br)cc(CCCC(=O)N2CCC(n3cc(-c4ccccc4)[nH]c3=O)CC2)cc1Br` [compound 64, 1-{1-[4-(4-amino-3,5-dibromophenyl)-1-oxobutyl]-4-piperidinyl}-1,3-dihydro-4-phenyl-2(2H)-imidazolone], 162.5 to 163.5 °C.
As for `Nc1c(Br)cc(C(=O)CCC(=O)N2CCN(c3cc4ccccc4[nH]c3=O)CC2)cc1Br` [compound 59, 3-{1-[4-(4-amino-3,5-dibromophenyl)-1,4-dioxobutyl]-4-piperazinyl}-2(1H)-quinolinone], the melting point was 272 to 274 °C (dec.).
`COc1ccc(C(=O)CCC(=O)N2CCC(N3Cc4ccccc4NC3=O)CC2)cc1` [compound 25, 3,4-dihydro-3-{1-[1,4-dioxo-4-(4-methoxyphenyl)butyl]-4-piperidinyl}-2(1H)-quinazolinone]: the melting point is 171 to 172 °C.

For orientation: melting point means the temperature, or range, at which the solid turns liquid.

The record behind these values is patent publication US7230001B1, “Arylalkane, arylalkene and aryl azaalkane, medicaments containing said compounds and method for the production thereof” (Boehringer Ingelheim Pharma GmbH & Co. KG, priority 1999, dated 2007).
